Reference: patent US10030036B2, “Method and dyes for detecting and destroying cancer cells” (Lahjavida, LLC, priority 2009, dated 2018)

Assay: near infrared fluorescent spectral properties
Format: physicochemical
Description: Some of these compounds in formula 1-8 and the compounds shown in Scheme 1 have variable water solubility, near infrared fluorescent spectral properties suitable for in-vivo tissue imaging (e.g. MHI-148 has λmax absorption 780 nm and high intensity λmax emission 800 nm (FIG. 1)), and have been tested to have similar activities in near infrared fluorescent imaging of tumor cells and inhibiting tumor cell growth in vitro, and permit selective destruction of any gold labeled cancer cells via radiofrequency treatment. The solubility of the labeled gold particles may be controlled by the dye molecules attached to the surface of gold particles or by additional solubilization groups attached to the gold particle surface as it is described by the literature or by prior art. Biodistribution of these gold particles are determined by the molecules attached to the gold particle surface and particle size.

Which λmax absorption does the source give for `CC1(C)C(/C=C/C2=C(Cl)C(=C/C=C3\Cc4ccccc4N3CCCCCC(=O)O)/CCC2)=[N+](CCCCCC(=O)O)c2ccccc21` [MHI-148] here?
The λmax absorption was 780 nm.

What about the λmax emission (high intensity) of the same molecule?
The λmax emission was 800 nm.
